The text below walks through data of patent US6180385A (priority 1996, dated 2001).

This series has as its target Lb proteinase (Foot-and-mouth disease virus serotype O, UniProt P03305).

Sequence of Lb proteinase (P03305 29-201 limits assumed): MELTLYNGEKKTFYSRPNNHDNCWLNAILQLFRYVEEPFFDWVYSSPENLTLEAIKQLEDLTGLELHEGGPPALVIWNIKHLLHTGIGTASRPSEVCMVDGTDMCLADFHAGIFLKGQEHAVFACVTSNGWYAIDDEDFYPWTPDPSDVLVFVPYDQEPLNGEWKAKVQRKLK

With AKVQRKLKGAGQSSPA [LVP4-1], the “FMDV Lb cleavage site on the peptide (* indicates cleavage site)” value was “K*G”, the “cleavage of peptide in the absence of SDS (controls)” value is given as “complete cleavage” and the “peptide cleaved by Lb (qualitative)” value was “cleaved”. Moreover, the “cleavage of peptide by Lb after 4 min” value (lb proteinase, 4 min, 100 µM, pH 8) was “more than 80%”. In addition, under “lb proteinase, 8 min, 100 µM, pH 8”, the “cleavage of peptide by Lb after 8 min” value is “about 90%”.
